Data taken from patent publication US12022833B2, “Uracil compound and composition for controlling harmful arthropods comprising the same” (Sumitomo Chemical Company, Limited, priority 2018, dated 2024).

Test system: diamondback moth (Plutella xylostella)
Experiment: Test Example 1: cabbage seedling spray test against diamondback moth larvae
Assay type: in vivo
Conditions: 500 ppm diluted solution sprayed on cabbage seedling, 20 mL/seedling; five second instar larvae; 25° C. for 5 days
Protocol: Thirty-five (35) parts of a mixture of polyoxyethylene alkyl ether sulfate ammonium salt and wet silica (weight ratio of 1:1), 20 parts of the compound A, and 45 parts of water were mixed thoroughly. The resulting mixture was diluted with water containing 0.03 v/v % of Shindain (registered trademark) to prepare a diluted solution containing 500 ppm of the compound A. The diluted solution was sprayed into the cabbage (Brassicae oleracea) seedling (on the developmental stage of the second to third true leaf) that is planted in a container in a ratio of 20 mL/seedling.
Thereafter, the stem and leaf of thereof was cut out and then was installed into the container that was covered with the filter paper. Five second instar larvae of diamondback moth (Plutella xylostella) were released into the container, and the container was allowed to stand at 25° C. for 5 days. Thereafter, the surviving insects were counted, and the mortality was calculated from the following equation, and as a result, the mortality was 100%. Mortality (%)=(1−Number of the surviving insects/5)×100
The test was carried out according to Test Example 1 using the compound B instead of the compound A. As a result, the mortality was 0%.

| Structure (SMILES) | Mortality |
| --- | --- |
| COC(=O)COC(=O)COc1ncccc1Oc1cc(-n2c(=O)cc(C(F)(F)F)n(C)c2=O)c(F)cc1Cl [Compound B] | 0% |
| CCOC(=O)COC(=O)COc1ncccc1Oc1cc(-n2c(=O)cc(C(F)(F)F)n(C)c2=O)c(F)cc1Cl [Compound A] | 100% |
